Patent publication US10286033B2, “Methods and compositions comprising desmopressin in combination with an alpha-adrenergic receptor antagonist” (Serenity Pharmaceuticals, LLC, priority 2014, dated 2019)
Marks after values point to notes of the source that are not given here.

How the values were obtained:
[1] = Clinical study of desmopressin nasal spray on the occurrence of nocturnal voiding (Responder / Non-Responder); format: in vivo, human
Protocol: A clinical study was performed to evaluate the impact of administering desmopressin in combination with an alpha-adrenergic receptor antagonist alone or together with a 5-alpha reductase inhibitor to reduce the occurrence of nocturnal voiding by a patient. Experimental procedures and results are described below. […] Patients received as a nasal spray either (i) a 1.5 μg dosage of desmopressin or (ii) placebo. The desmopressin nasal spray (or placebo) was administered daily just prior to bedtime for a duration of twelve weeks. In addition, patients previously diagnosed as suffering from benign prostatic hyperplasia (BPH) and receiving an alpha-adrenergic receptor antagonist alone or together a 5-alpha reductase inhibitor for treatment of BPH continued to receive the alpha-adrenergic receptor antagonist alone or together the 5-alpha reductase inhibitor at the same dosage and frequency used prior to enrollment in this study. All patients in this study who received an alpha-adrenergic receptor antagonist alone or together a 5-alpha reductase inhibitor for treatment of their BPH had been receiving the alpha-adrenergic receptor antagonist alone or together the 5-alpha reductase inhibitor for at least 2 months before enrollment in this study and experienced on average at least two nocturnal voids per night before enrollment in this study. The desmopressin nasal spray was prepared by combining aliquots of an Emulsion Stock Solution and a Buffer Solution as described below. To produce an emulsion stock solution, the following ingredients in parts by weight are added to a vessel equipped with a stirring bar, and mixed for 15 minutes at 60-65° C.: (i) 180 parts sorbitan monolaurate (Span-20) aqueous solution (12 mg/mL); (ii) 30 parts Polysorbate 20 (Tween-20) aqueous solution (2 mg/mL); (iii) 400 parts cottonseed oil aqueous emulsion (26.6 mg/mL); (iv) 600 parts cyclopentadecanolide (CPE-215) aqueous emulsion (40 mg/mL); and (v) water to produce 1,500 grams total batch size. After mixing, the preparation is homogenized using a high speed mixture at 6500 RPM+ for 20-25 minutes to produce a fine emulsion. This solution is autoclaved to assure sterility. To produce a citric acid buffer stock solution, the following ingredients in parts by weight are added to a vessel equipped with a stirring bar, and mixed for 5 minutes at 60-65° C.: (i) 6200 parts water; (ii) 16 parts anhydrous citric acid aqueous solution (1.85 mg/mL); (iii) 76 parts sodium citrate, dihydrate aqueous solution (8.9 mg/mL); (iv) 104 parts Polysorbate 20 (Tween-20) aqueous solution (12 mg/mL); and (v) water to produce 8,500 grams total batch size. To produce a desmopressin stock solution, 0.111 part desmopressin acetate trihydrate is added to sufficient buffer stock solution to produce 100.0 mL of solution, and stirred until all the desmopressin is dissolved to produce a stock solution having a concentration of 100 μg desmopressin/mL. From this stock solution a 30 μg/mL solution was prepared by dilution. To produce the desmopressin nasal spray, aliquots of the 30 μg/mL solution were filtered to eliminate any bacterial contamination and diluted with an equal volume of emulsion stock solution to produce aseptic, preservative free dose forms comprising 15 μg/mL desmopressin, pH 5.5, containing 2% cyclopentadecanolide. These were bottled in sterile pump spray bottles fitted with a Pfeiffer APF pump sprayers that deliver 100 μL per metered spray (i.e., 1.5 μg desmopressin (i.e., 1500 ng desmopressin) per spray). The liquid contains no detectable microorganisms. Patients recorded the occurrence of nocturnal voids during the study period. Patients were designated to be a “Responder” if after receiving treatment there was a reduction in the average number of nocturnal voids during the treatment period.

[2] = human, in vivo; cited from earlier work
[3] = BPH patients also receiving alpha-adrenergic receptor antagonist and 5-alpha reductase inhibitor, 1.5 μg nasal spray, 12 weeks, n = 21
[4] = BPH patients on alpha-adrenergic receptor antagonist alone or together with 5-alpha reductase inhibitor, n = 21
[5] = BPH patients, no alpha-adrenergic receptor antagonist or 5-alpha reductase inhibitor, n = 42
[6] = male patients without BPH, desmopressin only, n = 34

NC(=O)CC[C@@H]1NC(=O)[C@H](Cc2ccccc2)NC(=O)[C@H](Cc2ccc(O)cc2)NC(=O)CCSSC[C@@H](C(=O)N2CCC[C@H]2C(=O)N[C@H](CCCN=C(N)N)C(=O)NCC(N)=O)NC(=O)[C@H](CC(N)=O)NC1=O [Desmopressin, 1-desamino-8-D-arginine vasopressin]
Non-Responder Patients: Number of Patients that Received Desmopressin ([1]; BPH patients also receiving alpha-adrenergic receptor antagonist (one patient also on an anticholinergic agent), 1.5 μg nasal spray, 12 weeks, n = 21): 7**
Non-Responder Patients: Number of Patients that Received Desmopressin [1, 3]: 2
Responder Patients: Number of Patients that Received Desmopressin [1, 3]: 5
Responder Patients: Number of Patients that Received Desmopressin ([1]; BPH patients also receiving alpha-adrenergic receptor antagonist, 1.5 μg nasal spray daily before bedtime, 12 weeks, n = 21 desmopressin group): 7
Difference in Responder Response Rate Between Desmopressin-treated Patients & Those Receiving Placebo ([1]; BPH patients on alpha-adrenergic receptor antagonist alone or together with 5-alpha reductase inhibitor): 31%
Difference in Responder Response Rate Between Desmopressin-treated Patients & Those Receiving Placebo ([1]; BPH patients on alpha-adrenergic receptor antagonist alone or together with 5-alpha reductase inhibitor, listed as desmopressin): 31%
Non-Responder Patients: Total Number of Patients that Received Desmopressin [1, 4]: 9
Percent Total Non-Responder Patients receiving desmopressin [1, 4]: 43%
Percent Total Responder Patients (absolute response rate) receiving desmopressin [1, 4]: 57%
Responder Patients: Total Number of Patients that Received Desmopressin [1, 4]: 12
Percent Total Responder Patients (absolute response rate) receiving desmopressin ([1]; BPH patients on alpha-adrenergic receptor antagonist alone or together with 5-alpha reductase inhibitor, n = 21, listed as desmopressin): 57%
Difference in Responder Response Rate Between Desmopressin-treated Patients & Those Receiving Placebo ([1]; BPH patients, no alpha-adrenergic receptor antagonist or 5-alpha reductase inhibitor): 14%
Difference in Responder Response Rate Between Desmopressin-treated Patients & Those Receiving Placebo ([1]; BPH patients, no alpha-adrenergic receptor antagonist or 5-alpha reductase inhibitor, listed as desmopressin): 14%
Non-Responder Patients: Number of Patients that Received Desmopressin [1, 5]: 24
Percent Total Non-Responder Patients receiving desmopressin [1, 5]: 57%
Percent Total Responder Patients (absolute response rate) receiving desmopressin [1, 5]: 43%
Responder Patients: Number of Patients that Received Desmopressin [1, 5]: 18
Percent Total Responder Patients (absolute response rate) receiving desmopressin ([1]; BPH patients, no alpha-adrenergic receptor antagonist or 5-alpha reductase inhibitor, n = 42, listed as desmopressin): 43%
Reduction in occurrence of nocturnal voiding, combination compared with single treatments (in words) ([1]; desmopressin with alpha-adrenergic receptor antagonist alone or together with 5-alpha reductase inhibitor, versus desmopressin alone or the antagonist(s) without desmopressin): greater percentage of patients experiencing a reduction in the occurrence of nocturnal voiding
Difference in Responder Response Rate Between Desmopressin-treated Patients & Those Receiving Placebo ([1]; male patients without BPH, desmopressin only): 18%
Difference in Responder Response Rate Between Desmopressin-treated Patients & Those Receiving Placebo ([1]; male patients without BPH, desmopressin only, listed as desmopressin): 18%
Non-Responder Patients: Number of Patients that Received Desmopressin [1, 6]: 16
Percent Total Non-Responder Patients receiving desmopressin [1, 6]: 47%
Percent Total Responder Patients (absolute response rate) receiving desmopressin [1, 6]: 53%
Responder Patients: Number of Patients that Received Desmopressin [1, 6]: 18
Percent Total Responder Patients (absolute response rate) receiving desmopressin ([1]; male patients without BPH, desmopressin only, n = 34, listed as desmopressin): 53%
half-life (known clearance rate) [2]: 1.5 to 2.0 h
